Patent US20220081412A1, “QUINOLINYL-PYRAZINE-CARBOXAMIDE COMPOUNDS AND USES THEREOF” (The Regents of the University of Michigan, priority 2018, published 2022)

Tested on: cancer cells
Assay: Proteomics study (up- and downregulated proteins)
Format: cell-based
Details: for Hydroxymethylglutaryl-CoA synthase, cytoplasmic (HMGCS1) protein: proteomics
Description: Proteomics provide a comprehensive understanding of mechanisms that are responsible for the cytotoxicity of anticancer drugs, and based on the expression of protein helps in identification of drug targets (see, Wang, Y.; et al., Met Based Drugs. 2008, 1-9). One of the disadvantages of proteomics is membrane-bound proteins due to their poor solubility and low abundance, are disproportionally represented in proteome profiles (see, Smith, C. Nature, 2004, 428, 225-231). Identification of target proteins utilizing proteomics technique coupled with mass spectrometry is an evolving technology platform that has the potential to identify novel proteins involved in key biological processes in cells. There are two mass spectrometry-based methods currently used for protein profiling. The use of high-resolution two-dimensional electrophoresis to separate proteins from different samples, followed by selection and staining of differentially expressed proteins to be identified by mass spectrometry is the more established method. In the second approach isotope coded affinity tag (ICAT) reagents are utilized to differentially label proteins from two different complex mixtures, that are then digested to yield labeled peptides. The labeled mixtures are then combined, the peptides separated by multidimensional liquid chromatography and analyzed by tandem mass spectrometry. In this method, complexity of the mixtures omitting the non-cysteine residues is reduced as here the cysteine residues of proteins get covalently attached to the ICAT reagent. Proteomics coupled with bioinformatics process the raw mass spectral data into protein data (see, Yu, L. R.; Essentials of Genomic and Personalized Medicine 2010, 89-96). The most critical software programs take peptide mapping and/or tandem MS results and determine the protein or peptide sequence that are most closely related to the experimental data. One of the more intriguing MS-based proteomic techniques is to identify the proteins which are overexpressed thus aids in identification of the target protein of the given drug. There are several examples reported in literature about successful application of Bru-seq and proteomics for identification of mechanism of action of drugs.
It is the second step in the mevalonate-dependent isoprenoid biosynthesis pathway. HMG-CoA is an intermediate in both cholesterol synthesis and ketogenesis. Thus, here the proteomics results are in accordance with the Bru-seq results, implying “cholesterol biosynthesis pathway” as key pathway activated by these series of compounds.
Among its related pathways are regulation of cholesterol biosynthesis by SREBP (SREBF) and terpenoid backbone biosynthesis.

[1] = protein: 28S ribosomal protein S16, mitochondrial, downregulated
[2] = protein: 28S ribosomal protein S17, mitochondrial, downregulated
[3] = protein: 28S ribosomal protein S18b, mitochondrial, downregulated
[4] = protein: 28S ribosomal protein S22, mitochondrial, downregulated
[5] = protein: 28S ribosomal protein S25, mitochondrial, downregulated
[6] = protein: 40S ribosomal protein S8, upregulated
[7] = protein: 40S ribosomal protein S26, upregulated
[8] = protein: 40S ribosomal protein S30, upregulated
[9] = protein: 60S ribosomal protein L19, upregulated
[10] = protein: 60S ribosomal protein L27a, upregulated
[11] = protein: 60S ribosomal protein L36a-like, upregulated
[12] = protein: 60S ribosomal protein L37, upregulated
[13] = protein: Aconitate hydratase, mitochondrial, downregulated
[14] = protein: Acyl-CoA desaturase, upregulated
[15] = protein: Alanine aminotransferase 2, upregulated
[16] = protein: Aldehyde dehydrogenase X, downregulated
[17] = protein: Apolipoprotein A-I, upregulated
[18] = protein: Apolipoprotein B-100, upregulated
[19] = protein: Apolipoprotein C-III, upregulated
[20] = protein: Beta-2-glycoprotein 1, upregulated
[21] = protein: Bleomycin hydrolase, upregulated
[22] = protein: Constitutive coactivator of peroxisome proliferator-activated receptor gamma, downregulated
[23] = protein: Copper-transporting ATPase 2, upregulated
[24] = protein: D-dopachrome decarboxylase, downregulated
[25] = protein: DNA topoisomerase 2-alpha, downregulated
[26] = protein: Deoxyribonuclease-2-alpha, upregulated
[27] = protein: Dermcidin, upregulated
[28] = protein: Diphthine methyltransferase, upregulated
[29] = protein: E3 ubiquitin-protein ligase TRIM69, upregulated
[30] = protein: Elongation factor G, mitochondrial, downregulated
[31] = protein: FAST kinase domain-containing protein 5, mitochondrial, downregulated
[32] = protein: Filamin-C, upregulated
[33] = protein: GH3 domain-containing protein, upregulated
[34] = protein: Histone H1.2, downregulated
[35] = protein: Hydroxymethylglutaryl-CoA synthase, cytoplasmic, upregulated
[36] = protein: Interleukin-36 beta, downregulated
[37] = protein: Iron-responsive element-binding protein 2, upregulated
[38] = protein: Keratin, type I cytoskeletal 20, downregulated
[39] = protein: Kinesin-like protein KIF27, upregulated
[40] = protein: LanC-like protein 2, downregulated
[41] = protein: MBT domain-containing protein 1, downregulated
[42] = protein: Mixed lineage kinase domain-like protein, upregulated
[43] = protein: Muellerian-inhibiting factor, upregulated
[44] = protein: NADH dehydrogenase [ubiquinone] 1 alpha subcomplex subunit 6, downregulated
[45] = protein: NADH dehydrogenase [ubiquinone] iron-sulfur protein 4, mitochondrial, downregulated
[46] = protein: NADH-ubiquinone oxidoreductase 75 kDa subunit, mitochondrial, downregulated
[47] = protein: Nucleolar transcription factor 1, downregulated
[48] = protein: Phosphatidylserine synthase 1, upregulated
[49] = protein: Proliferation marker protein Ki-67, downregulated
[50] = protein: Protein FAM83H, downregulated
[51] = protein: Protein FAM177A1, upregulated
[52] = protein: Protein PIMREG, upregulated
[53] = protein: Protein cornichon homolog 4, upregulated
[54] = protein: Putative ankyrin repeat domain-containing protein 31, upregulated
[55] = protein: RNA-binding motif protein, X chromosome, downregulated
[56] = protein: Scaffold attachment factor B1, downregulated
[57] = protein: Scaffold attachment factor B2, downregulated
[58] = protein: Sequestosome-1, upregulated
[59] = protein: Serine/threonine-protein kinase PLK4, upregulated
[60] = protein: Squalene synthase, upregulated
[61] = protein: Transcription elongation factor 1 homolog, downregulated

With CCN(CC)CCCC(C)Nc1cnc(C(=O)Nc2cc(C)cc3cccnc23)cn1 (stereo not drawn) [J4, 5-((5-(diethylamino)pentan-2-yl)amino)-N-(6-methylquinolin-8-yl)pyrazine-2-carboxamide] the Abundance ratio [1] was 0.403, the “Abundance ratio (log2)” value [1] was −1.31 and the Abundance ratio [2] was 0.452. The “Abundance ratio (log2)” value [2] was −1.15, the Abundance ratio [3] was 0.337 and the “Abundance ratio (log2)” value [3] was −1.57. The Abundance ratio [4] was 0.432, the “Abundance ratio (log2)” value [4] was −1.21 and the Abundance ratio [5] was 0.402. For the same compound, the “Abundance ratio (log2)” value [5] was −1.32, the Abundance ratio [6] was 1.777 and the “Abundance ratio (log2)” value [6] was 0.83. For the same compound, the Abundance ratio [7] was 1.717, the “Abundance ratio (log2)” value [7] was 0.78 and the Abundance ratio [8] was 1.649. For the same compound, the “Abundance ratio (log2)” value [8] was 0.72, the Abundance ratio [9] was 1.761 and the “Abundance ratio (log2)” value [9] was 0.82. The Abundance ratio [10] was 1.713, the “Abundance ratio (log2)” value [10] was 0.78 and the Abundance ratio [11] was 1.623. For the same compound, the “Abundance ratio (log2)” value [11] was 0.7, the Abundance ratio [12] was 1.808 and the “Abundance ratio (log2)” value [12] was 0.85. The Abundance ratio [13] was 0.489, the “Abundance ratio (log2)” value [13] was −1.03 and the Abundance ratio [14] was 2.148. The “Abundance ratio (log2)” value [14] was 1.1, the Abundance ratio [15] was 1.616 and the “Abundance ratio (log2)” value [15] was 0.69. For the same compound, the Abundance ratio [16] was 0.278, the “Abundance ratio (log2)” value [16] was −1.85 and the Abundance ratio [17] was 1.891. For the same compound, the “Abundance ratio (log2)” value [17] was 0.92, the Abundance ratio [18] was 2.151 and the “Abundance ratio (log2)” value [18] was 1.1. The Abundance ratio [19] was 2.072, the “Abundance ratio (log2)” value [19] was 1.05 and the Abundance ratio [20] was 1.622. For the same compound, the “Abundance ratio (log2)” value [20] was 0.7, the Abundance ratio [21] was 1.845 and the “Abundance ratio (log2)” value [21] was 0.88. For the same compound, the Abundance ratio [22] was 0.419, the “Abundance ratio (log2)” value [22] was −1.25 and the Abundance ratio [23] was 1.807. For the same compound, the “Abundance ratio (log2)” value [23] was 0.85, the Abundance ratio [24] was 0.487 and the “Abundance ratio (log2)” value [24] was −1.04. For the same compound, the Abundance ratio [25] was 0.381, the “Abundance ratio (log2)” value [25] was −1.39 and the Abundance ratio [26] was 1.649. For the same compound, the “Abundance ratio (log2)” value [26] was 0.72, the Abundance ratio [27] was 2.454 and the “Abundance ratio (log2)” value [27] was 1.3. The Abundance ratio [28] was 1.633, the “Abundance ratio (log2)” value [28] was 0.71 and the Abundance ratio [29] was 1.906. For the same compound, the “Abundance ratio (log2)” value [29] was 0.93, the Abundance ratio [30] was 0.245 and the “Abundance ratio (log2)” value [30] was −2.03. The Abundance ratio [31] was 0.382, the “Abundance ratio (log2)” value [31] was −1.39 and the Abundance ratio [32] was 2.026. The “Abundance ratio (log2)” value [32] was 1.02, the Abundance ratio [33] was 1.742 and the “Abundance ratio (log2)” value [33] was 0.8. The Abundance ratio [34] was 0.462, the “Abundance ratio (log2)” value [34] was −1.11 and the Abundance ratio [35] was 1.944. For the same compound, the “Abundance ratio (log2)” value [35] was 0.96, the Abundance ratio [36] was 0.462 and the “Abundance ratio (log2)” value [36] was −1.12. The Abundance ratio [37] was 2.136, the “Abundance ratio (log2)” value [37] was 1.09 and the Abundance ratio [38] was 0.439. For the same compound, the “Abundance ratio (log2)” value [38] was −1.19, the Abundance ratio [39] was 1.89 and the “Abundance ratio (log2)” value [39] was 0.92. For the same compound, the Abundance ratio [40] was 0.327, the “Abundance ratio (log2)” value [40] was −1.61 and the Abundance ratio (protein: Lumican, upregulated) was 1.612. The “Abundance ratio (log2)” value (protein: Lumican, upregulated) was 0.69, the Abundance ratio [41] was 0.233 and the “Abundance ratio (log2)” value [41] was −2.1. The Abundance ratio [42] was 1.861, the “Abundance ratio (log2)” value [42] was 0.9 and the Abundance ratio [43] was 1.824. The “Abundance ratio (log2)” value [43] was 0.87, the Abundance ratio [44] was 0.473 and the “Abundance ratio (log2)” value [44] was −1.08. For the same compound, the Abundance ratio [45] was 0.468, the “Abundance ratio (log2)” value [45] was −1.1 and the Abundance ratio [46] was 0.488. The “Abundance ratio (log2)” value [46] was −1.03, the Abundance ratio [47] was 0.484 and the “Abundance ratio (log2)” value [47] was −1.05. The Abundance ratio [48] was 1.946, the “Abundance ratio (log2)” value [48] was 0.96 and the Abundance ratio [49] was 0.474. The “Abundance ratio (log2)” value [49] was −1.08, the Abundance ratio [50] was 0.46 and the “Abundance ratio (log2)” value [50] was −1.12. For the same compound, the Abundance ratio [51] was 3.085, the “Abundance ratio (log2)” value [51] was 1.63 and the Abundance ratio [52] was 1.711. The “Abundance ratio (log2)” value [52] was 0.77, the Abundance ratio [53] was 1.656 and the “Abundance ratio (log2)” value [53] was 0.73. For the same compound, the Abundance ratio [54] was 1.786, the “Abundance ratio (log2)” value [54] was 0.84 and the Abundance ratio [55] was 0.441. For the same compound, the “Abundance ratio (log2)” value [55] was −1.18, the Abundance ratio [56] was 0.401 and the “Abundance ratio (log2)” value [56] was −1.32. The Abundance ratio [57] was 0.405, the “Abundance ratio (log2)” value [57] was −1.3 and the Abundance ratio [58] was 1.69. For the same compound, the “Abundance ratio (log2)” value [58] was 0.76, the Abundance ratio [59] was 3.158 and the “Abundance ratio (log2)” value [59] was 1.66. The Abundance ratio [60] was 1.597, the “Abundance ratio (log2)” value [60] was 0.68 and the Abundance ratio [61] was 0.364. For the same compound, the “Abundance ratio (log2)” value [61] was −1.46, the “Hydroxymethylglutaryl-CoA synthase, cytoplasmic (HMGCS1) protein” value was “upregulation” and the “Hydroxymethylglutaryl-CoA synthase, cytoplasmic (HMGCS1) protein” value (listed as JR-1-235) was “upregulated”.
